In ChEMBL document CHEMBL4196012 (Eur J Med Chem, 2018):
≈ marks a conversion by molar mass, not a printed value.

What was measured:
[1] = tested on: Staphylococcus aureus; assay: Antibacterial activity against methicillin-sensitive Staphylococcus aureus ATCC 25923 after 18 hrs by broth microdilution method; format: functional; settings: ATCC 25923, 18 h
[2] = tested on: Staphylococcus aureus; assay: Antibacterial activity against methicillin-sensitive Staphylococcus aureus ATCC 6538 after 18 hrs by broth microdilution method; format: functional; settings: ATCC 6538, 18 h
[3] = tested on: Staphylococcus aureus; assay: Antibacterial activity against methicillin-resistant Staphylococcus aureus MIKROBANK 14001 by broth microdilution method; format: functional
[4] = tested on: Staphylococcus epidermidis; assay: Antibacterial activity against Staphylococcus epidermidis ATCC 12228 after 18 hrs by broth microdilution method; format: functional; settings: ATCC 12228, 18 h
[5] = tested on: Bacillus subtilis; assay: Antibacterial activity against Bacillus subtilis ATCC 6638 after 18 hrs by broth microdilution method; format: functional; settings: ATCC 6638, 18 h
[6] = tested on: Micrococcus luteus; assay: Antibacterial activity against Micrococcus luteus ATCC 10240 after 18 hrs by broth microdilution method; format: functional; settings: ATCC 10240, 18 h
[7] = tested on: Bacillus cereus; assay: Antibacterial activity against Bacillus cereus ATCC 10876 after 18 hrs by broth microdilution method; format: functional; settings: ATCC 10876, 18 h
[8] = tested on: Staphylococcus aureus; assay: Potency index, ratio of ciprofloxacin MIC to compound MIC for antibacterial activity against vancomycin-insensitive Staphylococcus aureus; format: functional
[9] = tested on: Bacillus subtilis; assay: Antibacterial activity against Bacillus subtilis NCDC 71 after overnight incubation by single disc method; format: functional
[10] = tested on: Escherichia coli; assay: Antibacterial activity against Escherichia coli NCDC 134 after overnight incubation by single disc method; format: functional
[11] = tested on: Pseudomonas aeruginosa; assay: Antibacterial activity against Pseudomonas aeruginosa NCDC105 after overnight incubation by single disc method; format: functional
[12] = tested on: Paenibacillus polymyxa; assay: Antibacterial activity against Paenibacillus polymyxa NCDC 64 after overnight incubation by single disc method; format: functional
[13] = tested on: Staphylococcus aureus; assay: Antibacterial activity against Staphylococcus aureus NCDC 110 after overnight incubation by single disc method; format: functional
[14] = tested on: Yersinia pseudotuberculosis; assay: Antibacterial activity against Yersinia pseudotuberculosis ATCC 911 after 18 to 24 hrs by double microdilution method; format: functional
[15] = tested on: Enterococcus faecalis; assay: Antibacterial activity against Enterococcus faecalis ATCC 29212 after 18 to 24 hrs by double microdilution method; format: functional
[16] = tested on: Staphylococcus aureus; assay: Antibacterial activity against Staphylococcus aureus ATCC 25923 after 18 to 24 hrs by double microdilution method; format: functional
[17] = tested on: Bacillus cereus; assay: Antibacterial activity against Bacillus cereus 709 Roma after 18 to 24 hrs by double microdilution method; format: functional
[18] = tested on: Mycolicibacterium smegmatis; assay: Antibacterial activity against Mycobacterium smegmatis ATCC 607 after 48 to 72 hrs by double microdilution method; format: functional
[19] = tested on: Escherichia coli; assay: Antibacterial activity against Escherichia coli ATCC 35218 after 18 to 24 hrs by double microdilution method; format: functional
[20] = tested on: Pseudomonas aeruginosa; assay: Antibacterial activity against Pseudomonas aeruginosa ATCC 10145 after 18 to 24 hrs by double microdilution method; format: functional
[21] = Partition coefficient, log P of the compound; format: physicochemical; settings: octanol/water
[22] = tested on: Escherichia coli; assay: In vivo antibacterial activity against Escherichia coli NCTC 10419 infected in po dosed mouse administered at 1 and 4 hrs post infection; format: functional, organism-based
[23] = tested on: Escherichia coli; assay: Antibacterial activity against Escherichia coli after 24 hrs by agar streak dilution method; format: functional
[24] = tested on: Pseudomonas aeruginosa; assay: Potency index, ratio of ciprofloxacin MIC to compound MIC for antibacterial activity against Pseudomonas aeruginosa; format: functional
[25] = tested on: Escherichia coli; assay: Potency index, ratio of ciprofloxacin MIC to compound MIC for antibacterial activity against Escherichia coli; format: functional
[26] = tested on: Pseudomonas aeruginosa; assay: Antibacterial activity against Pseudomonas aeruginosa after 24 hrs by agar streak dilution method; format: functional
[27] = tested on: Escherichia coli; assay: Antibacterial activity against Escherichia coli ATCC 25922 after 18 to 24 hrs by double microdilution method; format: functional
[28] = tested on: Pseudomonas aeruginosa; assay: Antibacterial activity against Pseudomonas aeruginosa ATCC 43288 after 18 to 24 hrs by double microdilution method; format: functional

SMILES | MIC [14] | MIC [15] | MIC [16] | MIC [17] | MIC [18] | MIC [19] | MIC [20] | also measured
O=C(O)c1cn(C2CC2)c2cc(N3CCN(Cn4nc(-c5cccc(O)c5)n(Cc5ccc(Br)cc5Cl)c4=S)CC3)c(F)cc2c1=O |  |  |  |  |  |  |  | MIC [1]: 0.01 to 1.32 µM (≈ 0.0074 to 0.977 µg/mL); MIC [2]: 0.01 to 1.32 µM (≈ 0.0074 to 0.977 µg/mL); MIC [3]: 0.01 to 1.32 µM (≈ 0.0074 to 0.977 µg/mL); MIC [4]: 0.01 to 1.32 µM (≈ 0.0074 to 0.977 µg/mL); MIC [5]: 0.01 to 1.32 µM (≈ 0.0074 to 0.977 µg/mL); MIC [6]: 0.01 to 1.32 µM (≈ 0.0074 to 0.977 µg/mL); MIC [7]: 0.01 to 1.32 µM (≈ 0.0074 to 0.977 µg/mL)
CCn1cc(C(=O)O)c(=O)c2cnc(N3CCN(Cc4ccc(CN5CCN(c6cc7c(cc6F)c(=O)c(C(=O)O)cn7C6CC6)CC5)cc4)CC3)nc21 |  |  |  |  |  |  |  | Ratio [8]: >4
O=C(CN1CCN(c2cc3c(cc2F)c(=O)c(C(=O)O)cn3C2CC2)CC1)Nc1nc2c(Cl)ccc(Cl)c2s1 |  |  |  |  |  |  |  | MIC [9]: 3 to 125 µg/mL (≈ 5.08 to 212 µM); MIC [10]: 3 to 125 µg/mL (≈ 5.08 to 212 µM); MIC [11]: 3 to 125 µg/mL (≈ 5.08 to 212 µM); MIC [12]: 3 to 125 µg/mL (≈ 5.08 to 212 µM); MIC [13]: 3 to 125 µg/mL (≈ 5.08 to 212 µM)
CCn1c(CN2CCN(c3ccccc3OC)CC2)nn(CN2CCN(c3cc4c(cc3F)c(=O)c(C(=O)O)cn4C3CC3)CC2)c1=S | < 0.24 µg/mL | < 0.24 µg/mL | < 0.24 µg/mL | < 0.24 µg/mL | < 0.24 µg/mL | < 0.24 µg/mL | < 0.24 µg/mL | 
O=C(O)c1cn(C2CC2)c2cc(N3CCN(Cn4nc(CNc5ccc(N6CCN(c7ccc(F)cc7)CC6)c(F)c5)n(-c5ccccc5)c4=S)CC3)c(F)cc2c1=O | < 0.24 µg/mL | < 0.24 µg/mL | < 0.24 µg/mL | < 0.24 µg/mL | < 0.24 µg/mL | < 0.24 µg/mL | < 0.24 µg/mL | 
CCOC(=O)c1cn(C2CC2)c2cc(N3CCNCC3)c(F)cc2c1=O [CIPROFLOXACIN ETHYL ESTER] |  |  |  |  |  |  |  | logP [21]: -0.065
O=C(CN1CCN(c2cc3c(cc2F)c(=O)c(C(=O)O)cn3C2CC2)CC1)Nc1nc2ccc([N+](=O)[O-])cc2s1 |  |  |  |  |  |  |  | MIC [9]: 3 to 125 µg/mL (≈ 5.3 to 221 µM); MIC [10]: 3 to 125 µg/mL (≈ 5.3 to 221 µM); MIC [11]: 3 to 125 µg/mL (≈ 5.3 to 221 µM); MIC [12]: 3 to 125 µg/mL (≈ 5.3 to 221 µM); MIC [13]: 3 to 125 µg/mL (≈ 5.3 to 221 µM)
COc1cc(Cc2cnc(/N=C3\C(=O)N(CN4CCN(c5cc6c(cc5F)c(=O)c(C(=O)O)cn6C5CC5)CC4)c4ccc(C)cc43)nc2N)cc(OC)c1OC |  |  |  |  |  |  |  | EC50 [22]: 0.62 mg/kg
O=C(O)c1cn(C2CC2)c2cc(N3CCN(Cn4nc(CNc5ccc(N6CCN(c7ccc(F)cc7)CC6)c(F)c5)n(Cc5ccccc5)c4=S)CC3)c(F)cc2c1=O | < 0.24 µg/mL | < 0.24 µg/mL | < 0.24 µg/mL | < 0.24 µg/mL | < 0.24 µg/mL | < 0.24 µg/mL | < 0.24 µg/mL | 
COc1ccccc1N1CCN(Cc2nn(CN3CCN(c4cc5c(cc4F)c(=O)c(C(=O)O)cn5C4CC4)CC3)c(=S)n2Cc2ccccc2)CC1 | < 0.24 µg/mL | < 0.24 µg/mL | < 0.24 µg/mL | < 0.24 µg/mL | < 0.24 µg/mL | < 0.24 µg/mL | < 0.24 µg/mL | 
CCOc1ccc2nc(C3C(=O)CSC3N3CCN(c4cc5c(cc4F)c(=O)c(C(=O)O)cn5C4CC4)CC3)sc2c1 (stereo unspecified) |  |  |  |  |  |  |  | MIC [23]: 2 µg/mL (≈ 3.29 µM); Ratio [24]: 3; Ratio [25]: 3; MIC [26]: 2 µg/mL (≈ 3.29 µM)
CC1(C)S[C@@H]2[C@H](NC(=O)[C@H](N)c3ccccc3)C(=O)N2[C@H]1C(=O)O [AMPICILLIN] | 10 to 128 µg/mL (≈ 28.6 to 366 µM) | 10 to 128 µg/mL (≈ 28.6 to 366 µM) | 10 to 128 µg/mL (≈ 28.6 to 366 µM) | 10 to 128 µg/mL (≈ 28.6 to 366 µM) | 10 to 128 µg/mL (≈ 28.6 to 366 µM) | 3.9 to 250 µg/mL (≈ 11.2 to 715 µM) | 3.9 to 250 µg/mL (≈ 11.2 to 715 µM) | MIC [27]: 10 to 128 µg/mL (≈ 28.6 to 366 µM); MIC [28]: 10 to 128 µg/mL (≈ 28.6 to 366 µM)
